Like-named read-outs stand apart in the source and are kept apart here.
How the values were obtained:
[1] = biological target: HA-GST-Rheb (GTP-γ-S loaded) activating mTORC1 (Homo sapiens (Human), UniProt Q15382); experiment: Rheb-dependent in vitro kinase assay (Rheb-IVK; LanthaScreen or Western readout); assay type: biochemical
Rheb = Rheb (Homo sapiens (Human), UniProt Q15382); experiment: Affinity Selection Mass Spectrometry (ASMS); assay type: binding; conditions: affinity (R3/R0) in Affinity Selection Mass Spectrometry assay
Sequence of Rheb (Q15382 1-169 limits assumed): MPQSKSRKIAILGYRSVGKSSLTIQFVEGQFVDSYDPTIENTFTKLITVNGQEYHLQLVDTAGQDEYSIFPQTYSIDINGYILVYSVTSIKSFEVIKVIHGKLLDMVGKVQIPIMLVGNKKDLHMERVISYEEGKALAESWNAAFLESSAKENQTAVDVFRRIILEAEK
How it was run: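 Human Rheb (60 μM) with GDP (180 μM) and each compound at 2 μM, protein-plus versus protein-minus, incubated 30 min at room temperature, then washed by 10 kDa ultrafiltration. Retained ligand was released with MeCN and detected by UPLC-Q-TOF MS.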

[2] = Rheb-dependent in vitro kinase assay, read-out: IVK IC50

Sequence of HA-GST-Rheb (GTP-γ-S loaded) activating mTORC1 (Q15382 1-181): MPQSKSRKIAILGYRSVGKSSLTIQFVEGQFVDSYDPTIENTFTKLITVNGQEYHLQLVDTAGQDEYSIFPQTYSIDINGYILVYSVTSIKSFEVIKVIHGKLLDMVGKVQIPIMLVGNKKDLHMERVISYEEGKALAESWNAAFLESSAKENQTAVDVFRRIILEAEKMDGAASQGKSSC

Structure (SMILES) | IC50 [1, 2] | ASMS (R3/R0) (Rheb) | IC50 ([1]; LanthaScreen variation, Terbium labeled T46p4E-BP1 specific antibody, read-out: IC50 in the Rheb-IVK) | inhibition of mTORC1 activity in the Rheb-IVK ([1]; Western blot variation, anti 4E-BP1 and anti T37/46p4E-BP1)
OCc1cc2c(Sc3ccc(Cl)cc3)cc(Cl)cc2[nH]1 [I-187, (6-chloro-4-(4-chlorophenylthio)-1H-indol-2-yl)methanol] | < 10 µM | B (an affinity (R3/R0) between 100% and 20%) |  | 
CN(C)C(=O)c1ccc(Cn2c(C#N)cc3c(Br)cc(Sc4ccc(Cl)c(Cl)c4)cc32)cc1 [I-13] | > 100 µM | B (an affinity (R3/R0) between 100% and 20%) |  | 
O[C@@H]1CCC[C@@H](COc2c(Cl)c(Cl)cc3[nH]c(-c4ccncc4)nc23)C1 [I-323] | > 3 µM | B (an affinity (R3/R0) between 100% and 20%) |  | 
CC(C)(C)c1cccc(Sc2cc(Cl)cc3[nH]c(C(=O)O)cc23)c1 [I-65, 4-(3-tert-butylphenylthio)-6-chloro-1H-indole-2-carboxylic acid] | < 10 µM | B (an affinity (R3/R0) between 100% and 20%) |  | 
O=C(O)c1cc2c(Br)cc(Sc3ccc(Cl)c(Cl)c3)cc2n1Cc1ccc(C(=O)N(CCO)CCO)cc1 [I-50, 1-(4-(bis(2-hydroxyethyl)carbamoyl)benzyl)-4-bromo-6-(3,4-dichlorophenylthio)-1H-indole-2-carboxylic acid] | < 10 µM | B (an affinity (R3/R0) between 100% and 20%) |  | 
CN(CCO)C(=O)c1ccc(Cn2c(C(=O)O)cc3c(Br)cc(Oc4ccccc4)cc32)cc1 [I-69, 4-bromo-1-(4-((2-hydroxyethyl)(methyl)carbamoyl)benzyl)-6-phenoxy-1H-indole-2-carboxylic acid] | 10 to 100 µM | C (an affinity (R3/R0)<20%) |  | 
Clc1cc2nc(-c3ccnc(N4CCNCC4)c3)[nH]c2cc1Cl [I-346] | > 100 µM | A (an affinity (R3/R0)>100%) |  | 
CC(=O)N[C@@H]1CCCC[C@@H]1COc1c(Cl)c(Cl)cc2[nH]c(CO)nc12 (racemic) [I-369] | 10 to 100 µM | C (an affinity (R3/R0)<20%) |  | 
Clc1cc2nc(-c3ccc(-c4ccncc4)cc3)[nH]c2cc1Cl [I-372] | > 100 µM | A (an affinity (R3/R0)>100%) |  | 
N#Cc1ccc(-c2nc3cc(Cl)c(Cl)cc3[nH]2)cc1 [I-370, 4-(5,6-dichloro-1H-benzo[d]imidazol-2-yl)benzonitrile] | 10 to 100 µM | B (an affinity (R3/R0) between 100% and 20%) |  | 
O=C(c1cc2c(Sc3ccc(Cl)cc3Cl)cc(Cl)cc2[nH]1)N1CCNCC1 [I-105, (6-chloro-4-(2,4-dichlorophenylthio)-1H-indol-2-yl)(piperazin-1-yl)methanone] | 10 to 100 µM | B (an affinity (R3/R0) between 100% and 20%) |  | 
OCc1nc2cc(SCc3ccc(Cl)cc3)c(Cl)c(Cl)c2[nH]1 [I-356, (6,7-dichloro-5-(4-chlorobenzylthio)-1H-benzo[d]imidazol-2-yl)methanol] | 10 to 100 µM | A (an affinity (R3/R0)>100%) |  | 
CN1CCN(c2ccc(NC(=O)c3cc4c(Sc5ccc(Cl)cc5Cl)cc(Cl)cc4[nH]3)cc2Cl)CC1 [I-111, 6-chloro-N-(3-chloro-4-(4-methylpiperazin-1-yl)phenyl)-4-(2,4-dichlorophenylthio)-1H-indole-2-carboxamide] | < 10 µM | C (an affinity (R3/R0)<20%) |  | 
Clc1ccc(COc2cc3nc(-c4ccncc4)[nH]c3c(Cl)c2Cl)cc1 [I-354, 6,7-dichloro-5-(4-chlorobenzyloxy)-2-(pyridin-4-yl)-1H-benzo[d]imidazole] | 10 to 100 µM | A (an affinity (R3/R0)>100%) |  | 
CC(C)(C)OC(=O)c1ccc(Cn2c(C(=O)O)cc3c(Br)cc(Oc4ccccc4)cc32)cc1 [I-167, 4-bromo-1-(4-(tert-butoxycarbonyl)benzyl)-6-phenoxy-1H-indole-2-carboxylic acid] | < 10 µM | B (an affinity (R3/R0) between 100% and 20%) |  | 
OCc1cc2c(Oc3cc(Cl)ccc3Cl)cc(Cl)cc2[nH]1 [I-171, (6-Chloro-4-(2,5-dichlorophenoxy)-1H-indol-2-yl)methanol] | 10 to 100 µM | B (an affinity (R3/R0) between 100% and 20%) |  | 
OCc1cc2c(Oc3ccccc3)c(Cl)ccc2[nH]1 [I-293, (5-chloro-4-phenoxy-1H-indol-2-yl)methanol] | 100 to 300 µM | C (an affinity (R3/R0)<20%) | ~83.8 µM | capable of inhibiting mTORC1 activity
O=C(O)c1nc2cc(OCc3ccc(Cl)cc3)c(Cl)c(Cl)c2[nH]1 [I-338, 6,7-dichloro-5-(4-chlorobenzyloxy)-1H-benzo[d]imidazole-2-carboxylic acid] | > 3 µM | B (an affinity (R3/R0) between 100% and 20%) |  | 
OC1CC(COc2c(Cl)c(Cl)cc3c2nc2n3COC2)CC1O (centres unmarked) [I-373, 4-((6,7-dichloro-1,3-dihydrobenzo[d]oxazolo[3,4-a]imidazol-5-yloxy)methyl)cyclopentane-1,2-diol] | 10 to 100 µM | C (an affinity (R3/R0)<20%) |  | 
Fc1cccc(Oc2cccc3[nH]ccc23)c1 [I-282, 4-(3-fluorophenoxy)-1H-indole] | 100 to 300 µM | C (an affinity (R3/R0)<20%) |  | 
OCC(O)c1nc2c(OCC3CCCCC3)c(Cl)c(Cl)cc2[nH]1 (centres unmarked) [I-325, 1-(5,6-dichloro-4-(cyclohexylmethoxy)-1H-benzo[d]imidazol-2-yl)ethane-1,2-diol] | 10 to 100 µM | B (an affinity (R3/R0) between 100% and 20%) |  | 
OCCCc1cc2c(Oc3ccccc3)c(Cl)ccc2[nH]1 [I-248, 3-(5-chloro-4-phenoxy-1H-indol-2-yl)propan-1-ol] | 10 to 100 µM | C (an affinity (R3/R0)<20%) |  | 
CN(C)C(=O)c1ccc(Cn2c(C(=O)O)cc3c(Br)cc(SC4CCCCC4)cc32)cc1 [I-11] | > 3 µM | B (an affinity (R3/R0) between 100% and 20%) |  | 
O=C(NC1CCN(Cc2ccccc2)CC1)c1cc2c(Sc3ccc(Cl)cc3Cl)cc(Cl)cc2[nH]1 [I-117] | > 3 µM | C (an affinity (R3/R0)<20%) |  | 
N#Cc1ccc(Cn2ccc3c(Sc4ccc(Cl)cc4Cl)cccc32)cc1 [I-160] | > 100 µM | C (an affinity (R3/R0)<20%) |  | 
O=C(O)Cn1ccc2c(Oc3cc(Cl)ccc3Cl)cc(Cl)cc21 [I-158, 2-(6-Chloro-4-(2,5-dichlorophenoxy)-1H-indol-1-yl)acetic acid] | 10 to 100 µM | B (an affinity (R3/R0) between 100% and 20%) |  | 
CC(c1ccc(C(=O)N(C)C)cc1)n1c(C(=O)O)cc2c(Br)cc(Sc3ccc(Cl)c(Cl)c3)cc21 (centres unmarked) [I-5, 4-bromo-6-(3,4-dichlorophenylthio)-1-(1-(4-(dimethylcarbamoyl)phenyl)ethyl)-1H-indole-2-carboxylic acid] | < 10 µM | B (an affinity (R3/R0) between 100% and 20%) |  | 
CN1CCC(CCNC(=O)c2cc3c(Sc4ccc(Cl)cc4Cl)cc(Cl)c(Cl)c3[nH]2)CC1 [I-27] | > 100 µM | B (an affinity (R3/R0) between 100% and 20%) |  | 
NC(=O)CCc1cc2c(Oc3ccccc3)c(Cl)ccc2[nH]1 [I-247, 3-(5-chloro-4-phenoxy-1H-indol-2-yl)propanamide] | 10 to 100 µM | C (an affinity (R3/R0)<20%) |  | 
CN1CC(NC(=O)c2cc3c(Sc4ccc(Cl)cc4Cl)cc(Cl)c(Cl)c3[nH]2)C1 [I-21] | > 100 µM | C (an affinity (R3/R0)<20%) |  | 

From US11339144B2 (Navitor Pharmaceuticals, Inc., priority 2017, dated 2022)
